Reference: US7348330B2, “1-azabicyclo [2,2,2] octan-3-one derivatives” (Aprea AB, priority 2000, dated 2008)

Experiments:
[1] = biological target: T1, GST-wild type p53 protein (Homo sapiens, UniProt P04637); test: Band shift assay, heat-inactivated protein; format: biochemical; conditions: protein inactivated at 37° C. for 30 min
T1 construct: made in house
Description: Lane 3, inactivation of DNA binding of wtp53 by heating.
(§1) The GST-p53 proteins were prepared as described (Selivanova et al., 1997). Band shift assays were performed in binding buffer containing 100 mM HEPES pH 7.5, 50 mM KCl , 1 mg/ml BSA, 0.1% Triton X-100, 2 mM MgCl2 and 1 mM DTT essentially as in (Selivanova et al., 1996).
Substitution of arginin at position 175 causes a gross unfolding of the DNA binding core domain of p53. Therefore, the restoration of the DNA binding of this mutant was regarded as an exceptionally difficult task.

14 mutant p53 proteins = test: Band shift assays, extracts of tumor cell lines; format: biochemical, human; conditions: of 14 mutants tested
Description: as §1
The compound MIRA-1 restored the DNA binding of 3 out of 14 mutant p53 proteins (Table III).

SKOV-His-175 cells [2] = test: p53-responsive EGFP reporter; format: cell-based, human
Excerpt: FIG. 9B, mutant p53-dependent activation of the wild-type p53-responsive EGFP reporter in PRIMA-1-treated SKOV-His-175 cells. […] FIG. 9C, MIRA-1 induced wild-type p53-responsive EGFP reporter in SKOV-His-175 cells.
The plasmids encoding the GST-human wild type p53 fusion protein and the GST-human mutant p53 proteins His 175 were described earlier (Selivanova et al., 1996). The p53-EGFP plasmid contains 13 synthetic p53 consensus DNA binding sites in front of the EGFP coding sequence. Transient transfections experiments were performed with Lipofectamine 2000 according to the manufacturer's recommendations (Invitrogen™ Life Technologies, Groningen, The Netherlands).
We also transiently transfected SKOV-His-175 cells with a p53-responsive EGFP reporter.

SKOV-His-175 cells [3] = test: WST-1 proliferation assay; format: cell-based, human; conditions: for increase in cell survival by cycloheximide pretreatment: cycloheximide before addition of compound
Description: FIG. 13B, PRIMA-3 reactivated the hot spot p53 mutant Trp-248 in H1299 lung adenocarcinoma cells. FIG. 13C, MIRA-2 and MIRA-3 reactivated His-175 mutant of p53 in SKOV cells. […] FIG. 13G, PRIMA-2 reactivated mutant p53 His-273 in SKOV cells.
Saos-2-His-273 cell line stably transfected with construct allowing expression of mutant His-273 p53 in a tetracycline-dependent manner was used for screening (Selivanova et al., 1997). p53 expression was inhibited by incubation of cells with doxycycline (5 μg/ml). Cells were grown in 96-well plates at a density of 3000 cells per well with or without doxycycline and treated with 25 μM of the compounds from the NCI library of low molecular weight (LMW) compounds. After 48 hours of incubation the proliferative cell reagent WST-1 (Roche) was added to the cells. The degree of WST-1 reduction, which reflects cell viability, was measured by microplate reader at λ490 nm according to the manufacturer (Roche).
The cycloheximide treatment renders SKOV-His-175 resistant to MIRA-1 as well, resulting in about 4 fold increase in cell survival. […] In addition, SKOV-His-175 cells were at least 3 fold more sensitive to treatment with MIRA-1 in comparison with SKOV-His-175-22/23 cells.
Growth suppression by analogs in the presence or absence of p53 expression was measured as described in FIG. 1. […] Analogs of MIRA-1 induced mutant p53-dependent growth suppression in SKOV-His-175 cells (FIG. 13C).

Saos-2-His-273 cells = test: FACS analysis of apoptosis (sub-G1, propidium iodide); format: cell-based, human; conditions: for p53 dependence of apoptosis induction: cells grown in presence or absence of doxycyclin; for time after treatment at which apoptosis/cell death is evident: data not shown
Description: Induction of apoptosis was determined by FACS analysis of ethanol fixed cells stained with propidium iodide (PI) as percentage of a sub-G1 population. […] The percentage of dead cells in non-treated cultures and in controls treated with caspase inhibitors only was subtracted. […] Hoechst staining was used to stain cell nuclei. […] The percentage of apoptotic cells was measured by FACS analysis as it was described in Figure.
Cells were placed on 12-well plate at a density of 30000/cm^2 and treated with compounds. After 48 h incubation cells were harvested by trypsinization, fixed with 70% ethanol, treated with RNase A (0.25 mg/ml) and stained with propidium iodide (0.02 mg/ml). Samples were analyzed on a Becton Dickinson FACScan. Data were analyzed by the CellQuest software, version 3.2.1.
Induction of cell death was determined by FACS analysis of ethanol-fixed cells stained with propidium iodide (PI) as percentage of sub-G1 population.

[4] = biological target: T1, GST-wild type p53 protein; test: ELISA with conformation-specific antibodies, recombinant protein; format: biochemical
Description: 20 ng of GST-wtp53, GST-mtp53-175 and GST-mtp53-248 were heated at 37° C. for 30 min or kept on ice. The procedure was performed with or without tested compounds. The ELISA analyses were done as described by (Foster et al., 1999). Briefly, after the treatment, samples were diluted with coating buffer (150 mM KCL, 25 mM HEPES) supplemented with 10 mM DTT. The whole mixture was apply to ELISA plates (MaxiSorp, Nunc) and incubated at +4° C. for 35 min. The wells were washed with coating buffer. The wells were blocked by 5% skim milk in PBS by incubating at +4° C. for 1 h. […] Samples were incubated at +4° C. for 30 min. Wells were rinsed twice with PBS. After that, a secondary antibody (anti-mouse, conjugated with horse radish peroxidase) was incubated with samples at +4° C. for 30 min. Then plates were washed 5 times with PBS and a peroxidase substrate was added. An absorbance at λ405 nm was monitored by ELISA reader.

[5] = tested on: p53-responsive PG-luciferase reporter in Saos-2-His-273 cells; test: PG-luciferase reporter assay; format: cell-based, human
Description: Transactivation assays using p53-responsive promoter constructs linked to the luciferase reporter gene (PG-luc) were performed by the Dual Luciferase Reporter Assay System (Promega) according to the manufacturer. […] A luciferase activity was assayed 1; 3.5 and 15 hours post-treatment.

[6] = tested on: SW480 colon carcinoma cells carrying endogenous His-273 mutant p53; test: Western blot of p53 target genes p21 and MDM2; format: cell-based; conditions: Western blotting
Excerpt: In order to assess the effect of the analogs on the transcriptional transactivation function of mutant p53, we tested the expression of p53 target genes after treatment with analogs of colon carcinoma cells SW480 expressing endogenous His-273 mutant p53.

[7] = tested on: HCT116 colon carcinoma cells that carry wild type p53; test: Western blot of p53 target genes p21 and MDM2; format: cell-based

T1 sequence (P04637 whole entry): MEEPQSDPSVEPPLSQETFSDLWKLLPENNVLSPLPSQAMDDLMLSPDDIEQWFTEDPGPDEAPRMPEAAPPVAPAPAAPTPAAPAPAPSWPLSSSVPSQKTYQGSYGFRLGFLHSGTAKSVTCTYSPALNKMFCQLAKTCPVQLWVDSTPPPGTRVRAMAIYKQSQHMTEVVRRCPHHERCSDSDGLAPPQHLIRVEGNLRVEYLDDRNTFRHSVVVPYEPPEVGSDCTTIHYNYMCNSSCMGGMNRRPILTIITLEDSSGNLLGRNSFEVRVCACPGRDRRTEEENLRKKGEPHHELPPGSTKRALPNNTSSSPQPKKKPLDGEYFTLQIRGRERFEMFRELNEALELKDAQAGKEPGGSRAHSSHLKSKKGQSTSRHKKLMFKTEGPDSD

SMILES | restoration of specific DNA binding [1] | mutant p53 proteins whose specific DNA binding was restored (14 mutant p53 proteins) | EGFP reporter expression (SKOV-His-175 cells [2]; 5μM for 24 hours) | sensitivity of SKOV-His-175 cells in comparison with SKOV-His-175-22/23 cells (SKOV-His-175 cells [3]) | increase in cell survival by cycloheximide pretreatment (SKOV-His-175 cells [3]) | induction of apoptosis (Saos-2-His-273 cells; 48 hours, no doxycycline) | p53 dependence of apoptosis induction (Saos-2-His-273 cells) | time after treatment at which apoptosis/cell death is evident (Saos-2-His-273 cells) | increase in the PAb1620+ fraction [4] | reduction in PAb240+ fraction [4] | stimulation of luciferase expression ([5]; after 3.5 hours, 10 μM) | induction of MDM2 and p21 [6] | MDM2 and p21 protein levels [7] | EGFP reporter expression (SKOV-His-175 cells [2]; cells expressing mutant p53, 24 hours) | EGFP reporter expression (SKOV-His-175 cells [2]; doxycycline (p53 off), 24 hours) | induction of apoptosis (Saos-2-His-273 cells; 50, 75 and 125 µM, mutant p53 expressed) | DO-1+ fraction [4] | induction of luciferase expression ([5]; after 15 hours, 50 μM)
CCC(=O)OCN1C(=O)C=CC1=O [MIRA-1] | able to restore | 3 out of 14 | induction of EGFP was also observed | at least 3 fold | about 4 fold | apoptosis was induced | occurred only in the presence of p53 expression | 6 to 12 h | About 40% | ~20% | 2 fold | induced MDM2 and p21 | did not cause any significant changes |  |  |  |  | 
O=C1C2CCN(CC2)C1(CO)CO [PRIMA-1, 2,2-bis(hydroxymethyl)-1-azabicyclo[2,2,2]octan-3-one] | able to restore | 13 out of 14 |  |  | 4 fold |  | occurred only in the presence of p53 expression | 48 h | 40% | corresponding decrease |  | induced MDM2 and p21 | did not cause any significant changes | strong induction of EGFP expression | did not express detectable levels of EGFP | apoptosis was induced | remained unchanged | 2 fold
